Measured values taken from ChEMBL document CHEMBL3832079, “DailyMed|setid=c8806b45-493a-4373-bce7-736e97f9f876 | DIVALPROEX SODIUM - divalproex sodium tablet, delayed release|REMEDYREPACK INC”.
“And” between values parts separate entries of the source, which are not always exact repeats. Equal values may be shown once.

Legend:
Homo sapiens [1] = test: Evaluation of pharmacokinetic parameters for Valproic acid following single oral administration of Divalproex Sodium tablets or capsules.; assay type: ADME, organism-based; conditions: in vivo, dosed compound id 430, dosed compound name DIVALPROEX SODIUM, regimen Single dose, tissue Plasma
Homo sapiens [2] = test: Evaluation of pharmacokinetic parameters for Valproic acid following oral administration of Divalproex Sodium.; assay type: ADME, organism-based; conditions: in vivo, dosed compound id 431, dosed compound name VALPROATE SALT, tissue Plasma

Tmax (Homo sapiens [1]; dietary status Fasting): 3.3 h and 4 h
Tmax (Homo sapiens [1]; dietary status Fed): 4.8 h and 8 h
t1/2 (Homo sapiens [1]; dose 250 to 1000 mg): 9 to 16 h
CL (Homo sapiens [2]; gender female): 4.7 L/hr/1.73 m2
t1/2 (Homo sapiens [2]; gender male and female): 12 h and 18 h
CL (Homo sapiens [2]; gender male): 4.8 L/hr/1.73 m2
t1/2 (Homo sapiens [2]): 10 to 67 h and 7 to 13 h
SMILES: CCCC(CCC)C(=O)O [VALPROIC ACID]
